Columns and labels:
[1] = tested on: self-sustaining status epilepticus in Sprague Dawley rats; conditions: previously shown (Chang et al., 2009); cited from earlier work
[2] = tested on: phosphoinositide (PIP and PIP2) turnover in Dictyostelium AX2 cells; assay: Dictyostelium phospholipid labelling (PIP and PIP2 turnover); type: cell-based, Dictyostelium discoideum; conditions: wild type Dictyostelium; for activity at 500 µM: Dictyostelium, 0.1 h, read-out: PIP Level (% control), Table 1, 0.5 mM compound, 3 min pre-treatment + 6 min labelling
Method: Phospholipid labelling was quantified using a Typhoon phosphor-imager. Even loading was determined using total lipid stain with copper sulphate.

[3] = tested on: PTZ-induced epileptiform activity in entorhinal cortex-hippocampal slices; assay: In vitro PTZ acute seizure model, entorhinal cortex-hippocampus slices; type: cell-based, rat; conditions: PTZ 2 mM, [K+] 6 mM; compounds equimolar 1 mM; 30 to 40 minutes after application
Method: (§1) The rats (p21) were decapitated after killing by intraperitoneal injection with an overdose of pentobarbitone (500 mg/kg). The brain was removed and placed in ice-cold sucrose solution in mM: NaCl 87, KCl 2.5, MgCl2 7, CaCl2 0.5, NaH2PO4 1.25, sucrose 75, glucose 25, equilibrated with 95% 02/5% CO2 (pH 7.4). Horizontal combined entorhinal cortex-hippocampus slices (350 μm) were prepared with a Leica vibratome (Leica V T1200S) and were then stored in an interface chamber that contained artificial cerebrospinal fluid solution (aCSF) containing in mM: NaCl 119, KCl 2.5, MgSO4 4, CaCl2 4, NaHCO326.2, NaH2PO4 1, glucose 11, and gassed with 95% O2/5% CO2. They were stored for over one hour before being transferred to a submersion recording chamber continually perfused with carbogenated aCSF for recording. Field potential recordings were made by placing glass microelectrodes (˜1-2 MΩ) filled with aCSF solution in stratum radiatum of CA1. Bipolar stimulating electrodes were positioned in the Schaffer collateral/commissural fibre pathway in stratum radiatum to confirm slice viability. In the PTZ acute seizure model, PTZ (2 mM) was added to the perfusate and [K+] was increased to 6 mM in order to induce epileptiform activity (Armand et al., 1998). In the low Mg^2+ acute seizure model, Mg^2+ free aCSF was applied to generate rhythmic short recurrent discharges. Novel anticonvulsants were applied once the frequency and amplitude of the epileptiform discharges were stable over a period of 10 min. Anticonvulsant effects were evaluated by measuring the variation of frequency of the discharges every minute. The data acquired from the 30 to 40 minutes after application novel anticonvulsants were compared by ANOVA followed by post-hoc testing using Tukey test, using SPSS statistical analysis.

[4] = tested on: low magnesium-induced burst discharges in entorhinal cortex-hippocampal slices; assay: In vitro low Mg2+ acute seizure model, entorhinal cortex-hippocampus slices; type: cell-based, rat; conditions: 1 mM, 30-40 minutes after application
Method: as §1, with “In the low Mg^2+ acute seizure model, Mg^2+ free aCSF was applied to generate rhythmic short recurrent discharges. Novel anticonvulsants were applied once the frequency and amplitude of the epileptiform discharges were stable over a period of 10 min.” left out, “The data acquired from the 30 to 40 minutes after application novel anticonvulsants were compared by ANOVA followed by post-hoc testing using Tukey test, using SPSS statistical analysis.” left out

[5] = tested on: self-sustaining status epilepticus in Sprague Dawley rats; assay: In vivo status epilepticus (perforant path stimulation); parameters: species or system rat; conditions: 400 mg/kg
Method: This method has been described in detail previously (Walker et al., 1999). In brief, male Sprague Dawley rats […] were anesthetized with 1-2% isoflurane in O2. An earth electrode was positioned subcutaneously, and a monopolar recording electrode was implanted stereotactically into the right hippocampus (coordinates, 2.5 mm lateral and 4 mm caudal from bregma). A bipolar stimulating electrode was implanted in the right hemisphere and advanced into the angular bundle (coordinates, 4.4 mm lateral and 8.1 mm caudal from bregma) to stimulate the perforant path. The depths of the electrodes were adjusted to maximize the slope of the dentate granule cell field potential (Guo et al., 1999). The electrodes were held in place with dental acrylic and skull screws. The animals were allowed to recover from anaesthesia. Seven days later, the perforant path was electrically stimulated with 4-5 mA 50 μsec monopolar pulses at 20 Hz for 2 hr; this induced self-sustaining status epilepticus. After 10 min of self-sustaining status epilepticus, compounds or vehicle were administered and the behavioural seizures and EEG were monitored for 3 hours. At this point diazepam (10 mg/kg) was administered to all animals to stop the status epilepticus. Groups were compared by ANOVA followed by post-hoc testing using Tukey test, using SPSS.

[6] = tested on: release of 3H arachidonic acid / palmitic acid radiolabel from Dictyostelium cells; assay: Fatty acid release (3H radiolabel release from labelled cells); type: cell-based, Dictyostelium discoideum
[7] = tested on: uptake of 3H arachidonic acid / palmitic acid into Dictyostelium cells; assay: Fatty acid uptake (3H radiolabel incorporation into cells); type: cell-based, Dictyostelium discoideum; conditions: 3H-AA; FIG. 9
[8] = tested on: inositol levels in Dictyostelium cells; assay: Inositol levels in treated Dictyostelium cells; type: cell-based, Dictyostelium discoideum; conditions: time period causing phosphoinositide attenuation (9 min)
Method: Following a 6 min incubation, labelling solution was removed and cells were lysed in acidified methanol and phospholipids were separated as previously detailed (Williams et al., 1999). Phospholipid labelling was quantified using a Typhoon phosphor-imager. Even loading was determined using total lipid stain with copper sulphate. Inositol levels were measured from five hour developed cells (similar to phospholipid labelling), following lyophilisation, as previously described (Maslanski & Busa, 1990).

[9] = tested on: inositol trisphosphate (InsP3) levels in Dictyostelium; conditions: Eickholt et al., 2005; cited from earlier work
[10] = biological target: T1, human myo-inositol synthase (Homo sapiens, UniProt Q9NPH2); conditions: Shaltiel et al., 2004, 2007a; cited from earlier work
T1 sequence (Q9NPH2 1-558): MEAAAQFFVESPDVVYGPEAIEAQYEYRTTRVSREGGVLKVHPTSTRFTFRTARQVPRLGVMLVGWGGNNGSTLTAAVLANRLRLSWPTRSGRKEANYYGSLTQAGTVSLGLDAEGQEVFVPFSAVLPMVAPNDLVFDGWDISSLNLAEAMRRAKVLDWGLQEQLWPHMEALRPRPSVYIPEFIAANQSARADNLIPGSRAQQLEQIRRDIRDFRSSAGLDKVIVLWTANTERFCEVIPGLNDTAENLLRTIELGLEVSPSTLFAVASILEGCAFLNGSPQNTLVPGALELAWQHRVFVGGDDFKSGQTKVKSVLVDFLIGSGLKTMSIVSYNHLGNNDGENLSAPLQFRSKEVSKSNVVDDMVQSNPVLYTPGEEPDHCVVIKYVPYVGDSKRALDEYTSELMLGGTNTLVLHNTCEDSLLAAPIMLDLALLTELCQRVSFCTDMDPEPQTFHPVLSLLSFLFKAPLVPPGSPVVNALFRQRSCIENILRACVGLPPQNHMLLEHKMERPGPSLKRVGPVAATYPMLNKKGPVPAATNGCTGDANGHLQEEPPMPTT

In the case of `O=C1NC(=O)C(c2ccccc2)(c2ccccc2)N1` [phenytoin], the “response of the status epilepticus model” value [1] is listed as “resistant”.
For `CCCCC(C)CCC(=O)O` (centres unmarked) [4-methyloctanoic acid], the activity at 500 µM [2] was 12%, the “reduction of PIP2 signalling” value ([2]; Table 1) was 93% and the “reduction of PIP signalling” value ([2]; Table 1) was 88%. For the same compound, the “frequency of epileptiform discharges (seizure discharge frequency)” value [3] was 49.1±4.4%, the “frequency of low magnesium-induced burst discharges” value [4] was “almost abolished” and the “frequency of low magnesium-induced burst discharges” value ([4]; listed as 4-MO) was 1.6±3.1 % of baseline. The “animals in which status epilepticus terminated (spike frequency of less than 1 Hz)” value [5] was “all”, the “seizure control in words” value ([5]; 3 hour test period) was “protected against seizures over the test period” and the “animals in which seizures completely stopped” value ([5]; after 2 hours, 7 animals per group) was 7 animals. For the same compound, the “animals in which seizure stop was maintained” value ([5]; by three hours) was “five out of seven”, the mean spike frequency ([5]; first hour) was 39.3±11.3% and the mean spike frequency ([5]; second hour) was 18.1±10.3%. The mean spike frequency ([5]; third hour) was 26.9±12.3%, the “inhibitory effect on radiolabel release” value ([6]; 3H-AA, FIG. 9) was “weak” and the activity at 500 µM ([6]; Dictyostelium, 0.5 h, Table 3, 3H-AA labelled cells, 30 min, 0.5 mM treatment, read-out: AA release [% of control]) was 66%. The “effect on 3H-AA uptake compared with VPA” value [7] was “reduced effect on uptake” and the “reduction in inositol levels” value [8] was “do not acutely deplete inositol”.
For `CCC=C(C)C(=O)O` [2-methyl-2-pentenoic acid], the activity at 500 µM [2] is listed as 14.8% and the InsP3 depletion [9] is listed as “strong InsP3 depletion”.
In the case of `CCCC(CCC)C(N)=O` [valpromide, 2-propylpentamide, reference compound], the activity at 500 µM [2] is given as 69.3%, the “radiolabel release activity relative to control” value ([6]; Table 3, 30 min, 0.5 mM) is given as “virtually no inhibition” and the “inhibition of human myo-inositol synthase” value [10] is given as “weak inhibition”.

Source: patent publication US11491127B2, “Therapeutic use of compounds” (UCL BUSINESS LTD, priority 2010, dated 2022)
